Test results taken from patent publication US20020165197A1, “Modulation of GSK-3beta activity and its different uses” (priority 2001, published 2002).

Tests used:
GSK-3β = test: Western blot of GSK-3β (total and phosphorylated) in B16-F10 melanoma cell extracts; format: cell-based
Protocol: (§1) Cells (B16-F10 melanoma cells) were maintained in RPMI medium supplemented with 10% […], 200 mM glutamine, 100 U/ml penicillin and 100 μg/ml streptomycin. They were transferred to a freshly prepared medium twice weekly. For all studies we used serum starved cells. FBS was omitted from the cultures for 18 hours and the experiment was carried out on monolayers of cells in RPMI medium supplemented with 1% FBS in a 37° C., 5% CO2 incubator.
(§2) To detect the level of expression of PKA, GSK-3β (total and phosphorylated), PKB/Akt (total and phosphorylated), β-catenin, c-myc and cyclin D1, protein extract from IB-MECA treated or untreated serum-starved B16-F10 melanoma cells were utilized. […] Further, to mimic the chain of events occurring upon activation of A2R, cells were incubated with 8Br cAMP.
(§3) At the end of the incubation period, cells were rinsed with ice-cold PBS and lysed in ice-cold lysis buffer (TNN buffer, 50 mM tis buffer pH=7.5, 150 mM NaCl, NP 40). Cell debris was removed by centrifugation at 7500×g for 10 min. Supernatant was utilized for Western Blot analysis. Protein concentrations were determined using the Bio-Rad protein assay dye reagent. […] Bands were recorded using BCIP/NBT color development kit (Promega, Madison, Wis., USA). […]

hair growth = test: Hair growth in nude mice inoculated with HCT-116 colon carcinoma cells; format: in vivo, Nude mice (BalbC origin); settings: 6 μg/kg body weight orally daily, 30 days
Protocol: Nude mice (BalbC origin) were subcutaneously inoculated with HCT16 human colon carcinoma cells, which thus developed a visible tumor.
Cl-IB-MECA was dissolved in DMSO and kept as a stock solution. in a concentration of 10 mM. Before administration to the mice, the stock solution was diluted with PBS to a concentration so that each mice received a dosage of 6 μg/kg body weight.
Nude mice (BalbC origin) were subcutaneously inoculated wit HCT-16 human colon carcinoma cells. These mice were divided into two groups:
Study group which was daily and orally administered with Cl-IB-MECA (6 μg/kg body weight) dissolved in DMSO and diluted with PBS.
Control group which was daily and orally administered with DMSO only.

HIV-1 SF126 = test: p24 ELISA, HIV replication in SF infected microglia; format: cell-based
Protocol: Purified primary human fetal astrocytes and microgial cells were prepared from 16 to 20 week old human fetal brain tissue by a modified procedure based on the methods of Cole and de Vellis [R. Cole and J. de Vellis. In: Protocols for neural cell cure. S. Fedoroff and A. Richardson (Eds.) Human Press, Totowa, N.J., pp. is 117-130. (1997)], and Yong and Antel [V. W. Yong and J. P. Antel. In: Protocols for neural cell culture. S. Fedoroff and A. Richardson (Eds.) Humana Press, Totowa, N.J., pp. 157-172 (1997)]. Brain tissue was washed in ice-cold Hank's Balanced Salt Solution (HBSS) containing the antibiotics gentamycin and arnphotericin B. Blood vessels and meninges were removed and the tissue was minced into small pieces. After mincing, the tissue was enzymatically dissociated by incubation in 0.05% trypsin and mechanically disrupted by passing several times over a 75 μm nylon mesh filter. The resulting single cell suspension was washed, pelleted and plated at a density of 2-10×10^6 cells per 162 cm^2 flask in DMEM:F12 containing 10% fetal calf […], gentamycin, and L-glutamine. After 7-10 days of growth, microglial cells were isolated by placement on rotary shaker at 200 rpm in a 37° C. incubator overnight. The non-adherent cells were removed and allowed to attach to a new flask for 1 to 3 h. Following attachment, the cells were washed and refed with media containing 10% fetal calf serum, insulin, gentamycin, L-gluntamine, and N1 supplement. Astocyes were subeultured from adherent cells in media containing 15% fetal calf serum, insulin, gentamycin, and L-glutamine and contaminating microglia were removed by repeated rotary shaking. Cultured astrocytic and nicroglial cells were plated at a density of 2.5×10^5 per well into 6 well plates for subseqent infection.
Brain derived primary HIV-1 isolates SF162 and JR-FL were cultured in human peripheral blood mononuclear cells (PBMC) essentially as described by Gartner and Popovic^12. PBMC were isolated from human buffy coat by ficoll gradient and plated at a density of 2.5×10^6 per ml in RPMI containing 10% fetal calf serum and gentamycin. Cells were stimulated by the addition of 5 μg/ml of phytohemagglutinin (PHA) for 48 h. After stimulation, cells were infected with either SF162 or JR-FL and cultured for 7 to 10 days until high titres of MIV-1 were detected in the supernatant by p24 ELISA assay. When viral production was optimal, the cells were pelleted, the supernatant containing HIV-1 was aliquoted and stored at −70° C. until use. P24 ELISA assay was performed on an aliquot of stock to determine the viral titre.
Microglial or astrocytic cells (2.5×10^5) were plated per well into 6-well plates. The next day, cells were washed and refed with fresh medium. […]

HIV-1 SF162 = test: p24 ELISA, HIV replication in SF162 infected astroglia; format: cell-based; settings: Astroglia/SF-162, 0.01 (μM); HIV control 313.38
Protocol: (§4) Purified primary human fetal astrocytes and microgial cells were prepared from 16 to 20 week old human fetal brain tissue by a modified procedure based on the methods of Cole and de Vellis [R. Cole and J. de Vellis. In: Protocols for neural cell cure. S. Fedoroff and A. Richardson (Eds.) Human Press, Totowa, N.J., pp. is 117-130. (1997)], and Yong and Antel [V. W. Yong and J. P. Antel. In: Protocols for neural cell culture. S. Fedoroff and A. Richardson (Eds.) Humana Press, Totowa, N.J., pp. 157-172 (1997)]. Brain tissue was washed in ice-cold Hank's Balanced Salt Solution (HBSS) containing the antibiotics gentamycin and arnphotericin B. Blood vessels and meninges were removed and the tissue was minced into small pieces. After mincing, the tissue was enzymatically dissociated by incubation in 0.05% trypsin and mechanically disrupted by passing several times over a 75 μm nylon mesh filter. […]
(§5) Brain derived primary HIV-1 isolates SF162 and JR-FL were cultured in human peripheral blood mononuclear cells (PBMC) essentially as described by Gartner and Popovic^12. […] After stimulation, cells were infected with either SF162 or JR-FL and cultured for 7 to 10 days until high titres of MIV-1 were detected in the supernatant by p24 ELISA assay. […]

cyclin D1 = test: Western blot of tumor tissue from HCT-116 colon carcinoma bearing mice: cyclin D1; format: in vivo, Balb/C nude mice; settings: 6 μg/Kg orally every second day, 30 days
Protocol: (§6) A similar series of studies was utilized in a colon carcinoma murine animal model to determine whether elements of the Wnt pathway altered by IB-MECA in vitro, occur as well in viro with Cl-B-MECA (another A3RAg). The animal model was generated by subcutaneous injection of 1.2×10^6HCT-116 human colon carcinoma cells to the flank of Balb/C nude mice. The mice were treated orally (by gavage), every second day with 6 μg/Kg Cl-IB-MECA.
(§7) After 30 days the mice were sacrificed and tissue samples from the colon carcinoma foci were harvested and analyzed for the expression of β-catenin and cyclin D1.

c-myc = test: Western blot of tumor tissue from HCT-116 colon carcinoma bearing mice: c-myc; format: in vivo, Balb/C nude mice; settings: 6 μg/Kg orally every second day, 30 days
β-catenin = test: Western blot of tumor tissue from HCT-116 colon carcinoma bearing mice: β-catenin; format: in vivo, Balb/C nude mice; settings: 6 μg/Kg orally every second day, 30 days
Protocol: as §6, §7

HIV-1 JR-FL = test: p24 ELISA, HIV replication in JR-FL infected astroglial cells; format: cell-based; settings: Astroglia/JR-FL, 0.01 (μM, every 24 hours); HIV control 22.83
Protocol: as §4, §5

B16-F10 melanoma cells = test: [3H]-thymidine incorporation cell proliferation assay; format: cell-based; settings: antagonist 0.01 μM added in the presence of IB-MECA
Protocol: as §1
[^3H]-thymidine incorporation assay as used to evaluate cell growth. B136-F10 melanom Cella (1.5×10^4/ml) were incubated with IB-MECA (0.0 μM-10 μM) in 96-well microtiter plates for 24 hours. To test whether IB-MECA exerted its effect on tumor cells through binding to A3AR, an antagonist to A3AR, MRS-1523, was added to the cell cultures in the presence of IB-MECA. Cultures of B16-F10 melanoma cells tat were incubated in the presence of MRS-1523 only, served as controls. For the last 6 h of incubation, each well was pulsed with 1 μCi [3H]-thymidine. Cells were harvested and the [^3H]-thyine uptake was determined in an LKB liquid scintillation counter (LKB, Piscataway, N.J., USA). These experiments were repeated at least 10 times.

PKAc = test: Western blot of PKAc in B16-F10 melanoma cell extracts; format: cell-based; settings: antagonist 0.01 μM with IB-MECA
Protocol: as §1, §2, §3

For `Nc1ncnc2c1nc(Br)n2[C@@H]1O[C@@H]2COP(=O)(O)O[C@H]2[C@H]1O` [8Br cAMP], the “level of GSK-3β” value (GSK-3β; 8Br cAMP added to culture to mimic A2AR activation) was “decrease”.
For `CNC(=O)C1OC(n2cnc3c(NCc4cccc(I)c4)nc(Cl)nc32)C(O)C1O` (centres unmarked) [Cl-IB-MECA], the “hair growth on the skin” value (hair growth) was “hair grew”, the “p 24 Day 10 after infection” value (HIV-1 SF126; 0.01, HIV control 209.18) was 111.05 pg/mL and the “p 24 Day 5 after infection” value (HIV-1 SF126; 0.01, HIV control 267.99) was 127.03 pg/mL. For the same compound, the “p 24 Day 10 after infection” value (HIV-1 SF126; 0.1, HIV control 209.18) was 80.37 pg/mL, the “p 24 Day 5 after infection” value (HIV-1 SF126; 0.1, HIV control 267.99) was 10.81 pg/mL and the “p 24 Day 5” value (HIV-1 SF162) was 288.77 pg/mL. For the same compound, the “level of cyclin D1 in tumor tissue” value (cyclin D1) was “decrease”, the “level of c-myc in tumor tissue” value (c-myc) was “decrease” and the “level of β-catenin in tumor tissue” value (β-catenin) was “decrease”. The “p 24 Day 5” value (HIV-1 JR-FL) was 8.45 pg/mL.
In the case of `CCCOC(=O)c1c(-c2ccccc2)nc(CC)c(C(=O)SCC)c1CCC` [MRS-1523], the “effect on the inhibitory effect of IB-MECA on melanoma cell growth” value (B16-F10 melanoma cells) was “reversed the inhibitory effect of IB-MECA”, the “effect on the IB-MECA induced decrease in PKAc” value (PKAc) was “reversed” and the “effect on the IB-MECA induced increase in GSK-3β levels” value (GSK-3β; antagonist 0.01 μM with IB-MECA) was “reversed”.
